Tests used:
[1] = molecular target: CREBBP bromodomain (His-CREBBP(1081-1197)) (Homo sapiens (Human), UniProt Q92793); assay: AlphaScreen in-vitro binding assay for CREBBP; details: AlphaScreen, acetyl-histone H4 peptide; read-out: CREBBP IC50
Experimental: AlphaScreen In-Vitro Binding Assay for CREBBP
In order to assess bromodomain selectivity, we set up a binding assay using the bromodomain encoded by the CREBBP gene. […] Reactions were incubated at 30° C. for 35 minutes. Subsequently 4.5 μl per well detection mix (50 mM HEPES, pH 7.5, 0.005% Tween20, 0.02% BSA, 150 mM NaCl, 45 μg/ml Ni-chelate acceptor beads, 45 μg/ml streptavidin-donor beads) (Perkin Elmer)) were added. After 60 minutes incubation at room temperature, plates were measured in a Perkin Elmer EnVision multilabel reader. IC50 values were determined from percent inhibition values at different compound concentrations by non-linear regression analysis.
(§1) Preparation of Compound Dilutions
(§2) Test compounds were dissolved in DMSO (10 mM) and transferred into 1.4 mL flat bottom or V-shaped Matrix tubes carrying a unique 2D matrix. The stock solutions were stored at […] if not used immediately. For the test procedure the vials were defrosted and identified by a scanner whereby a working sheet was generated that guided the subsequent working steps. Compound dilutions were made in 96 well plates. This format enabled the assay of maximally 40 individual test compounds at 8 concentrations (single points) including 4 reference compounds, if desired (known BET inhibitors from the prior art, for this and other assays of the type disclosed herein). The dilution protocol included the production of “pre-dilution plates”, “master plates” and “assay plates”.
(§3) Pre-dilution plates: 96 polypropylene well plates were used as pre-dilution plates. A total of 4 pre-dilution plates were prepared including 10 test compounds each on the plate positions A1-A10, one standard compound at A11 and one DMSO control at A12. All dilution steps were done on a HamiltonSTAR robot.
(§4) These plates were used directly for the assay which was performed in a total volume of 13.55 μL.

MV-4-11 cells = assay: Cell growth inhibition assay (CellTiter-Glo), MV-4-11; type: cell-based, human; details: MV-4-11, 4 days; for GI50: Homo sapiens, MV4-11, 96 h, half-maximal growth inhibition; for MV-4-11 TGI: total growth inhibition
Experimental: (§5) Cell Growth Inhibition Assay
(§6) The human leukemia cell lines MV-4-11, THP-1 and K-562 were employed to characterize the effect of BET inhibitors on cellular proliferation and viability. Cells were obtained from the American Type Culture Collection (ATCC) and cultured at 37° C. in a humidified 5% CO2 incubator in the following media: MV-4-11: DMEM high glucose (Animed #1-26F01-I), 10% FCS (Animed #2-01F26-I), 4 mM L-Glutamine (Animed #5-10K50), 1 mM Sodium Pyruvate (Animed #G03625P), lx Penicillin-Streptomycin (Animed #F12478P); K-562: Iscove's MEM (Animed #1-28F16-I), 10% FCS (Animed #2-01F26-I), 4 mM L-Glutamine (Animed #5-10K50), 1× Penicillin-Streptomycin (Animed #F12478P); THP-1: RPMI-1640 (Animed #1-41F01-I), 10% FCS (Animed #2-01F26-I), 2 mM L-Glutamine (Animed #5-10K50), 10 mM HEPES (Animed #5-31F100), 1 mM Sodium Pyruvate (Animed #G03625P), 1× Penicillin-Streptomycin (Animed #F12478P). The AML lines MV-4-11 and THP-1 are very sensitive to BET inhibitors and show massive cell death upon BET inhibition (Zuber et al., Nature, 478 (2011), 524-8). Compound-mediated suppression of cell proliferation/viability was assessed by quantification of cellular ATP levels using the CellTiter-Glo (CTG) reagent (Promega). Briefly, cells were seeded in 20 μl fresh medium into 384-well plates, followed by addition of 5 μl medium containing compound dilutions at 5-fold their final intended concentration. Dose-response effects were assessed by 3-fold serial dilutions of the test compound, starting at 10 μM. Following incubation of the cells for 4 days at 37° C. and 5% CO2, the effect of inhibitors on cell viability was quantified following addition of 20 μl CTG and luminescence quantification (integration time: 100 ms) as per vendor manual, using a correspondingly equipped Tecan M200 multi-mode platereader (TECAN, Switzerland). For data analysis, the assay background value determined in wells containing medium, but no cells, was subtracted from all data points. To enable differentiation of cytotoxic from cytostatic compounds, the number of viable cells is assessed relative to that observed at the time of compound addition using a separate cell plate (day 0). The effect of a particular test compound concentration on cell proliferation/viability is expressed as percentage of the background- and day 0-corrected luminescence reading obtained for cells treated with vehicle only (DMSO, 0.1% final concentration), which is set as 100%, whereas that luminescence reading for wells containing medium is set as −100%. Compound concentrations leading to half-maximal (IC50) and total growth inhibition (TGI) were determined using standard four parameter curve fitting.

K-562 cells = assay: Cell growth inhibition assay (CellTiter-Glo), K-562; type: cell-based, human; details: K-562, 4 days; for GI50: Homo sapiens, K562, 96 h, half-maximal growth inhibition; for K-562 TGI: total growth inhibition
Experimental: as §5, §6

BRD3 (His-Brd3(20-477)) = BRD3 (His-Brd3(20-477)) (Homo sapiens (Human), UniProt Q15059); assay: TR-FRET in-vitro binding assay for BRD3; details: acetyl-histone H4 peptide
Experimental: (§7) TR-FRET In-Vitro Binding Assays for BRD2, BRD3, and BRD4:
All assays were performed in 384 well microtiter plates. Each assay plate contained 8-point serial dilutions for 40 test compounds, plus 16 high- and 16 low controls. Liquid handling and incubation steps were done on an Innovadyne Nanodrop Express equipped with a robotic arm (Thermo CatX, Perkin Elmer/Caliper Twister II) and an incubator (Liconic STX40, Thermo Cytomat 2C450). The assay plates were prepared by addition of 50 nl per well of compound solution in 90% DMSO HummingBird nanodispenser (Zinsser Analytic). […] Reactions were incubated at 30° C. for 35 minutes. […] After 35 minutes incubation at 30° C., plates were measured in a Perkin Elmer EnVision multilabel reader.
as §1, §2, §3, §4

THP-1 cells = assay: Cell growth inhibition assay (CellTiter-Glo), THP-1; type: cell-based, human; details: THP-1, 4 days; for GI50: Homo sapiens, 96 h, half-maximal growth inhibition; for THP-1 TGI: total growth inhibition
Experimental: as §5, §6

BRD4 (His-Brd4(44-477)) = BRD4 (His-Brd4(44-477)) (Homo sapiens (Human), UniProt O60885); assay: TR-FRET in-vitro binding assay for BRD4; details: acetyl-histone H4 peptide
Experimental: as §7
(§8) All assays were performed in 384 well microtiter plates. Each assay plate contained 8-point serial dilutions for 40 test compounds, plus 16 high- and 16 low controls. Liquid handling and incubation steps were done on an Innovadyne Nanodrop Express equipped with a robotic arm (Thermo CatX, Perkin Elmer/Caliper Twister II) and an incubator (Liconic STX40, Thermo Cytomat 2C450). The assay plates were prepared by addition of 50 nl per well of compound solution in 90% DMSO HummingBird nanodispenser (Zinsser Analytic). The assay was started by stepwise addition of 4.5 μl per well of bromo domain protein (50 mM HEPES, pH 7.5, 0.005% Tween20, 0.1% BSA, 50 mM NaCl, 45 nM His-Brd2(60-472) or 45 nM His-Brd3(20-477) or 45 nM His-Brd4(44-477) all proteins produced in-house) and 4.5 μl per well of peptide solution (50 mM HEPES, pH 7.5, 0.005% Tween20, 0.1% BSA, 50 mM NaCl, 60 nM acetyl-histone H4 (AcK 5, 8, 12, 16) (Biosyntan GmbH)). Reactions were incubated at 30° C. for 35 minutes. […] After 35 minutes incubation at 30° C., plates were measured in a Perkin Elmer EnVision multilabel reader. Concentrations causing 50% inhibition (IC50 values) were determined from percent inhibition values at different compound concentrations by non-linear regression analysis.
as §1, §2, §3
(§9) Master plates: 30 μL of individual compound dilutions including standard compound and controls of the 4 “pre-dilution plates” were transferred into a 384 “master plate” including the following concentrations 10000, 3003, 1000, 300, 100, 30, 10 and 3 μM, respectively in 90% of DMSO.
(§10) Assay plates: Identical “assay plates” were then prepared by pipetting 50 nL each of compound dilutions of the “master plates” into 384-well “assay plates” by means of a HummingBird 384-channel dispenser. These plates were used directly for the assay which was performed in a total volume of 13.55 μL. This led to a final compound concentration of 37, 11, 3.7, 1.1, 0.37, 0.11, 0.037 and 0.011 μM and a final DMSO concentration of 0.37% in the assay.

BRD2 (His-Brd2(60-472)) = BRD2 (His-Brd2(60-472)) (Homo sapiens (Human), UniProt P25440); assay: TR-FRET in-vitro binding assay for BRD2; details: acetyl-histone H4 peptide
Experimental: as §7, §8, §1, §2, §3, §9, §10

Sequence of BRD2 (His-Brd2(60-472)) (P25440 60-472): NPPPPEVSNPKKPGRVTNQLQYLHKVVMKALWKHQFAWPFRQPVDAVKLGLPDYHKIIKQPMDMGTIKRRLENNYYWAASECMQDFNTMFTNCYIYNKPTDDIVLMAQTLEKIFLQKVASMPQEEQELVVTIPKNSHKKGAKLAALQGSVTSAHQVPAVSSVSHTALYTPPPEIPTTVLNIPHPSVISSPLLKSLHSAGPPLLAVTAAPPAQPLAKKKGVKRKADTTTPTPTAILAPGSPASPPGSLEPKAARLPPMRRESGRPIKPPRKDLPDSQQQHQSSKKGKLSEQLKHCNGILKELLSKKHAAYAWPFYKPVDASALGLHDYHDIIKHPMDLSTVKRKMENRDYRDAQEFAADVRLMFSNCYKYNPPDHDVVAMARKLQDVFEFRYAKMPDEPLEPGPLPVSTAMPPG
Sequence of BRD3 (His-Brd3(20-477)) (Q15059 20-477): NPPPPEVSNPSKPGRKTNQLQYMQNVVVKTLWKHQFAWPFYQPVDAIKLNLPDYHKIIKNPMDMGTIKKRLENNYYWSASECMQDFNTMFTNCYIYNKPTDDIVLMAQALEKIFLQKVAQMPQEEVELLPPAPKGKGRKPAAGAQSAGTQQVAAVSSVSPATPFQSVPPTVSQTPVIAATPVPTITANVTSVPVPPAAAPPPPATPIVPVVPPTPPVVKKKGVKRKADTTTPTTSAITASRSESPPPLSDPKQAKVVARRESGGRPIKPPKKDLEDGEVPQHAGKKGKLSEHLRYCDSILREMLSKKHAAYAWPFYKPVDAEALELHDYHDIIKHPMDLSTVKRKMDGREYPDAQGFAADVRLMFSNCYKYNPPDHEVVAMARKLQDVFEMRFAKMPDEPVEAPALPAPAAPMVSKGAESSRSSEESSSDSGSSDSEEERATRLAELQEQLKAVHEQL
Sequence of CREBBP bromodomain (His-CREBBP(1081-1197)) (Q92793 1081-1197): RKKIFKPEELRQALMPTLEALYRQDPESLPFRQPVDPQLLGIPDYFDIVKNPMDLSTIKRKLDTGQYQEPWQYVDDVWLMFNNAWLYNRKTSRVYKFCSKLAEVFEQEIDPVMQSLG

| Structure (SMILES) | IC50 [1] [µM] | GI50 (MV-4-11 cells) [µM] | MV-4-11 TGI (MV-4-11 cells) [µM] | GI50 (K-562 cells) [µM] | K-562 TGI (K-562 cells) [µM] | IC50 (BRD3 (His-Brd3(20-477))) [µM] | GI50 (THP-1 cells) [µM] | THP-1 TGI (THP-1 cells) [µM] | IC50 (BRD4 (His-Brd4(44-477))) [µM] | IC50 (BRD2 (His-Brd2(60-472))) [µM] |
| --- | --- | --- | --- | --- | --- | --- | --- | --- | --- | --- |
| COCCn1nc(C2CC2)c2c1[C@@H](c1ccc(Cl)cc1)N(c1cc(C)c3nnc(C)n3c1)C2=O [Example 15, (R)-6-(4-chlorophenyl)-3-cyclopropyl-5-(3,8-dimethyl-[1,2,4]triazolo[4,3-a]pyridin-6-yl)-1-(2-methoxyethyl)-5,6-dihydropyrrolo[3,4-c]pyrazol-4(1H)-one] | 6.1 | 0.00241 | 0.00579 | 0.0265 | >10 | 0.016 | 0.00642 | 0.0139 | 0.018 | 0.02 |
| COc1ncccc1-c1nn(C)c2c1C(=O)N(c1cc(C)c3nnc(C)n3c1)[C@@H]2c1ccc(Cl)cc1 [Example 13, (R)-6-(4-chlorophenyl)-5-(3,8-dimethyl-[1,2,4]triazolo[4,3-a]pyridin-6-yl)-3-(2-methoxypyridin-3-yl)-1-methyl-5,6-dihydropyrrolo[3,4-c]pyrazol-4(1H)-one] | 5.4 | 0.0143 | 0.0298 | 0.0965 | >10 | 0.022 | 0.0284 | 0.06465 | 0.024 | 0.034 |

Source: patent US9624247B2, “Pyrazolo-pyrrolidin-4-one derivatives as bet inhibitors and their use in the treatment of disease” (NOVARTIS AG, priority 2013, dated 2017)
